How the values were obtained:
[1] = target: T1, B. licheniformis penP β-lactamase (Bacillus licheniformis, UniProt P00808); experiment: Drug screening: E166Cf fluorescence in presence of bacterial β-lactamase culture; format: biochemical; set-up: key: −: Decline in fluorescence signal (presence of beta-lactam hydrolysis); +: No decline in fluorescence signal (absence of beta-lactam hydrolysis); conditions: antibiotic 1.0×10^−4 M, E166Cf 1.2×10^−7 M
T1 construct: made in house; host or cells: B. subtilis 1A304 (φ105MU331); whole culture used, not purified
T1 sequence (P00808 27-307): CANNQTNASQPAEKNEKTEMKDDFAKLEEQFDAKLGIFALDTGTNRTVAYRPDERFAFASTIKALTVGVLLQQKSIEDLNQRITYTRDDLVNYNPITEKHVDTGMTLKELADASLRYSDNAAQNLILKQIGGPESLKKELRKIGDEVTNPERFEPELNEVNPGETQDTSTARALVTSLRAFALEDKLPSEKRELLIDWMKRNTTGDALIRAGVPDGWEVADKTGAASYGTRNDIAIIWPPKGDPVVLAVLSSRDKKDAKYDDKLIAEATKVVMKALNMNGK
Procedure: (§1) The use of the E166Cf enzyme in screening bacterial β-lactamases against various β-lactam antibiotics was investigated. The principle of our method is that when both E166Cf and bacterial β-lactamase are incubated with ‘β-lactamase-unstable’ antibiotics, the fluorescence of the E166Cf enzyme will be suppressed because of the greater catalytic efficiency of the bacterial enzyme. In contrast, when bacterial β-lactamases are screened against ‘β-lactamase-resistant’ antibiotics, the fluorescence of the E166Cf enzyme will be enhanced because of the poor hydrolytic activity of the bacterial enzyme. Thus, any β-lactam antibiotic that causes the labeled enzyme to increase its fluorescence intensity in the presence of bacterial β-lactamases can be used in clinical treatments.
(§2) The β-lactamase II, penPC β-lactamase and penP β-lactamase were expressed in B. subtilis 1A304 (φ105MU331). These enzymes were prepared according to the procedures described previously (Reference 7: Thomwell, S. J. East, A. K., Errington, J. An efficient expression and secretion system based on Bacillus subtilis phage phi 105 and its uses for the production for B. cereus β-lactamase I. (1993) Gene 133, 47-53) with slight modifications. A bacterial strain was streaked on an agar plate containing 5 μg/ml chloramphenicol, and the plate was incubated at 37° C. for 24 h. A single bacterial colony from the agar plate was inoculated into 100 ml of sterilized BHY medium (37 g/l brain heart infusion and 5 g/l yeast extract) which was then incubated at 37° C. with shaking at 300 rpm overnight. About 7 ml of overnight inoculum was added to a baffled conical flask containing 100 ml of sterilized BHY medium. The inoculated medium was incubated at 37° C. with shaking at 300 rpm. When the optical density of the bacterial culture at 600 nm reached 3.5 to 4.0, the bacterial culture was heated in a water bath at 51° C. for 5 min. Afterwards, the bacterial culture was incubated at 37° C. with shaking at 300 rpm for a further 6 h. The bacterial culture was then harvested and stored at −20° C.
(§3) Fluorescence measurements of the E166Cf enzyme in the presence of bacterial cultures and β-lactam antibiotics were performed on a FLUOstar microplate reader (BMG Labtechnologies) equipped with two sample injectors. Excitation and emission filters of 485 and 520 nm respectively were used. For B. cereus penPC β-lactamase, B. licheniformis penP β-lactamase and B. cereus β-lactamase II, the labeled enzymes were mixed with the bacterial cultures, and the mixtures were made up to 300 μl with 50 mM phosphate buffer (pH 7.0) in a 96-well microtiter plate (Corning Costar). For the purpose of comparison, B. subtilis cultures, which produced no β-lactamase, were set up as negative controls. For E. coli. TEM-1 β-lactamase, the labeled enzymes were mixed with the bacterial cultures without dilution. E. coli. cultures, which produced no β-lactamase, were set up as negative controls for comparison. The antibiotics were then added to the bacterial samples by the injectors.
(§4) The results from the time-resolved fluorescence measurements of the labeled enzyme (1.2×10^−7 M) in the presence of various bacterial cultures and β-lactam antibiotics (1.0×10^−4 M) are shown in FIGS. 23 to 26.

[2] = target: T2, B. cereus penPC β-lactamase (Bacillus cereus, UniProt P00809); experiment: as above; format: biochemical; set-up: key: −: Decline in fluorescence signal (presence of beta-lactam hydrolysis); +: No decline in fluorescence signal (absence of beta-lactam hydrolysis); conditions: antibiotic 1.0×10^−4 M, E166Cf 1.2×10^−7 M
T2 construct: made in house; host or cells: B. subtilis 1A304 (φ105MU331); whole culture used, not purified
T2 sequence (P00809 28-306): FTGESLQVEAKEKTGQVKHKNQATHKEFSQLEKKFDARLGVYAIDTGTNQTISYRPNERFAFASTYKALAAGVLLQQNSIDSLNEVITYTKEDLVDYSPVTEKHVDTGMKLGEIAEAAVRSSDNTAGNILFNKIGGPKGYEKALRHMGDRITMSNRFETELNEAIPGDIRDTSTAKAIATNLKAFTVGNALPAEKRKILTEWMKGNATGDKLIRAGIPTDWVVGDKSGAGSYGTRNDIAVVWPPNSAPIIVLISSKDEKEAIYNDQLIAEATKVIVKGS
Procedure: as §1, §2, §3, §4

B. cereus β-lactamase II = target: T3, B. cereus β-lactamase II (Bacillus cereus, UniProt P04190); experiment: as above; format: biochemical; set-up: key: −: Decline in fluorescence signal (presence of beta-lactam hydrolysis); +: No decline in fluorescence signal (absence of beta-lactam hydrolysis); conditions: antibiotic 1.0×10^−4 M, E166Cf 1.2×10^−7 M
T3 construct: made in house; host or cells: B. subtilis 1A304 (φ105MU331); whole culture used, not purified
T3 sequence (P04190 31-257): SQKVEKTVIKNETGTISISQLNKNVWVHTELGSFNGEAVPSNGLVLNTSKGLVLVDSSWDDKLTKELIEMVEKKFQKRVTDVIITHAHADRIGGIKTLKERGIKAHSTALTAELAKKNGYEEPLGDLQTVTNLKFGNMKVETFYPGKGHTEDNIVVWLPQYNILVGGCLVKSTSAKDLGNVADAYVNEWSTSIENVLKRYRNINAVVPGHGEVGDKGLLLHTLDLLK
Procedure: as §1, §2, §3, §4

[3] = target: T4, E166Cf (fluorescein-labeled E166C mutant of β-lactamase I) (Bacillus cereus, UniProt P00809, E185C); experiment: Spectrophotometric substrate hydrolysis, steady-state kinetics; format: biochemical; conditions: E166Cf; 50 mM potassium phosphate buffer pH 7.0, 20° C.
T4 construct: made in house; host or cells: B. subtilis 1A304 (φ105MU331); then labelled chemically
T4 sequence (P00809 28-306 E185C): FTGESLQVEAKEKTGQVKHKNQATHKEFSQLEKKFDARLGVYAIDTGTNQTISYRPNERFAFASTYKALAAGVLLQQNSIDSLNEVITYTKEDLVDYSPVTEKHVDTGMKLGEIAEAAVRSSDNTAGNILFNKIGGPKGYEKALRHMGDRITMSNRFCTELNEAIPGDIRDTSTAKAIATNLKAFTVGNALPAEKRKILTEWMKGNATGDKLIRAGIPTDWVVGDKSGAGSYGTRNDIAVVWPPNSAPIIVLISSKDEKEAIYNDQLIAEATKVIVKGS
Procedure: (§5) The hydrolytic activities of the wild-type β-lactamase I, E166C and E166Cf mutants towards penicillin G, penicillin V and ampicillin (Sigma) were monitored by the spectrophotometric method. The spectrophotometric measurements were performed on a Perkin Elmer Lambda Bio20 UV/Vis spectrometer. Substrate hydrolysis was monitored at a fixed wavelength: 235 nm for ampicillin, 232 nm for penicillin G and penicillin V. The initial rate of substrate hydrolysis occurring within 5 min was determined in duplicate at each of 6 different substrate concentrations in 50 mM potassium phosphate buffer (pH 7.0) at 20° C. The initial rates determined were then treated as described in Reference 5 to calculate the Michaelis constants (Km) and turnover numbers (kcat) using non-linear regression analysis (equation 1):
(§6) [formula] where v is the initial rate of substrate hydrolysis, Vmax the maximum rate of reaction, [S] the initial substrate concentration, Km the Michaelis constant and kcat=Vmax/[Enzyme].
(§7) The measured steady-state kinetic parameters for hydrolysis of penicillin G, penicillin V and ampicillin by the wild-type β-lactamase I, E166C and E166Cf mutants are summarized in Table 1.
At high substrate concentration (1.0×10^−5 and 1.0×10^−4 M), the penicillin substrates rapidly occupy the active sites to form the ES complexes, thus switching on the fluorescence of the fluorescein labels instantaneously. […] This can be verified by the fact that the ‘plateau time’ (8 and 22 min for 1.0×10^−5 and 1.0×10^−4 M penicillin G respectively) is consistent with the ‘substrate hydrolysis time’ determined by spectrophotometric assays (7 and 20 min for 1.0×10^−5 and 1.0×10^−4 M penicillin G respectively). When most of the penicillin substrates have been hydrolyzed to carboxylic acids, the fluorescence signal of the labeled enzyme will decline subsequently.

[4] = target: T5, E. coli TEM-1 β-lactamase (Escherichia coli, UniProt P62593); experiment: Drug screening: E166Cf fluorescence in presence of bacterial β-lactamase culture; format: biochemical; set-up: key: −: Decline in fluorescence signal (presence of beta-lactam hydrolysis); +: No decline in fluorescence signal (absence of beta-lactam hydrolysis); conditions: E. coli TEM-1 culture, undiluted; antibiotic 1.0×10^−4 M; E166Cf 1.2×10^−7 M
T5 construct: made in house; host or cells: E. coli BL21(DE3); whole overnight culture used undiluted, not purified
T5 sequence (P62593 24-286 limits assumed): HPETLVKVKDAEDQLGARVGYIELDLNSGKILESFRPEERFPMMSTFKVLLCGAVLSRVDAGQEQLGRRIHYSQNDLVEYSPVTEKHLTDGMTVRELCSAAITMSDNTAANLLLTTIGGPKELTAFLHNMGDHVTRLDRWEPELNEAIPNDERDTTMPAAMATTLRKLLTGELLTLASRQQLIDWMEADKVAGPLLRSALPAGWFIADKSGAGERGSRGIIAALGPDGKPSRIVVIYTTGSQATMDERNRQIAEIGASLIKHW
Procedure: as §1
The TEM-1 β-lactamase was expressed in E. coli. BL21(DE3). Preparation of the TEM-1 β-lactamase was performed as follows. A bacterial strain was streaked on an agar plate containing 100 μg/ml ampicillin, and the plate was incubated at 37° C. for 24 h. A single bacterial colony from the plate was inoculated into 100 ml of sterilized LB broth (28 g/l) which was then incubated at 37° C. with shaking at 280 rpm overnight. After overnight incubation, the bacterial culture was harvested and stored at −20° C.
as §3, §4

[5] = target: T6, E166C mutant of β-lactamase I (Bacillus cereus, UniProt P00809, E185C); experiment: Spectrophotometric substrate hydrolysis, steady-state kinetics; format: biochemical; conditions: 50 mM potassium phosphate buffer pH 7.0, 20° C.
T6 construct: made in house; host or cells: B. subtilis 1A304 (φ105MU331)
T6 sequence (P00809 28-306 E185C): T4 sequence (P00809 28-306 E185C)
Procedure: as §5, §6, §7

E166Cf enzyme [6] = target: T7, E166Cf enzyme (Bacillus cereus, UniProt P00809, E185C); experiment: Detection of β-lactam antibiotics in milk by E166Cf fluorescence; conditions: untreated milk; E166Cf 1.2×10^−7 M
T7 construct: made in house; host or cells: B. subtilis 1A304 (φ105MU331); then labelled chemically
T7 sequence (P00809 28-306 E185C): T4 sequence (P00809 28-306 E185C)
Procedure: Fluorescence measurements of the E166Cf enzyme in milk in the presence of penicillin G and ampicillin were performed on a FLUOstar microplate reader (BMG Labtechnologies) equipped with two sample injectors. Excitation and emission filters of 485 and 520 nm respectively were used. Milk (pasteurized and homogenized, Nestle Dairy Farm) was purchased at a local supermarket. The labeled enzyme was mixed with the milk sample in a 96-well microtiter plate (Corning Costar). The antibiotics were then added to the mixtures by the injectors.
FIGS. 21 and 22 show the results from the time-resolved fluorescence measurements of the labeled enzyme (1.2×10^−7 M) in untreated milk in the presence of various concentrations of penicillin G and ampicillin respectively.

E166Cf enzyme [7] = target: T7, E166Cf enzyme; experiment: Time-resolved fluorescence of E166Cf enzyme with β-lactamase inhibitors; format: biochemical; conditions: 1.0×10^−4 M inhibitor; E166Cf 1.2×10^−7 M, 50 mM phosphate buffer pH 7.0
Procedure: Time-resolved fluorescence measurements of the E166Cf enzyme in the presence of sulbactam and clavulanate were performed on a Perkin Elmer LS50B spectrofluorometer. The excitation and emission wavelengths were set at 494 and 515 nm respectively. Both excitation and emission slit widths were set at 5 nm. All fluorescence measurements were performed at room temperature.
The fluorescence signals of the labeled enzyme (1.2×10^−7 M) obtained with sulbactam (1.0×10^−4 M) and clavulanate (1.0×10^−3 M) in 50 mM phosphate buffer (pH 7.0) are entirely different (FIGS. 18 and 19).

| SMILES | fluorescence signal of E166Cf (beta-lactam hydrolysis) [1] | fluorescence signal of E166Cf (beta-lactam hydrolysis) [2] | fluorescence signal of E166Cf (beta-lactam hydrolysis) (B. cereus β-lactamase II) | Km [3] [µM] | kcat [3] [s⁻¹] | fluorescence signal of E166Cf (beta-lactam hydrolysis) [4] | Km [5] [µM] | kcat [5] [s⁻¹] | lowest concentration detected by the labeled enzyme (E166Cf enzyme [6]) | time course of E166Cf fluorescence intensity at 515 nm (E166Cf enzyme [7]) |
| --- | --- | --- | --- | --- | --- | --- | --- | --- | --- | --- |
| CC1(C)S[C@@H]2[C@H](NC(=O)[C@H](N)c3ccccc3)C(=O)N2[C@H]1C(=O)O [Ampicillin, ampicillin] | − | − | − | 262 ± 31 | 6.2 ± 0.2 | − | 306 ± 30 | 4.1 ± 0.1 | 10^−6 M |  |
| CC1(C)[C@H](C(=O)O)N2C(=O)C[C@H]2S1(=O)=O [sulbactam] |  |  |  |  |  |  |  |  |  | increases rapidly at the initial stage and then declines slowly |

Reference: patent US7323303B2, “Modified β-lactamases and uses thereof” (priority 2003, dated 2008)
